Test results published in publication PMC7802075 (ACS Infectious Diseases, 2020).
Where a name gives a salt, the structure may show the parent alone. Where a SMILES comes first, the peptide text is derived from it.

Each compound was assayed against T1, LmjIPCS (inositol phosphorylceramide synthase from L. major) (Leishmania major, UniProt E9AFX2) (assay: biochemical). Conditions: not given.
T1 sequence (E9AFX2 1-338): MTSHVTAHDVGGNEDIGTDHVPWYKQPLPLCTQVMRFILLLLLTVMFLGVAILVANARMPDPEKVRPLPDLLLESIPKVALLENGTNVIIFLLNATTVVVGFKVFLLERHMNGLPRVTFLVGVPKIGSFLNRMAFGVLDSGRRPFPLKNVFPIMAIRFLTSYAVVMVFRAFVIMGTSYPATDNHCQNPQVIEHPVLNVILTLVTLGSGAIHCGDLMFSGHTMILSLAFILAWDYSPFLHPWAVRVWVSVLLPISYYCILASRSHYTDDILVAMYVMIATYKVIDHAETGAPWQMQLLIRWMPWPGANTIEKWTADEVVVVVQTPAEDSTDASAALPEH
Format: biochemical
Parameters: inhibition: dose or concentration left out as unconfirmed
NCCCCCC(=O)O [6-AMINOCAPROIC ACID] was tested, and the “20mM inhibition LmjIPCS” value was 43%. In the case of C[C@@H](N)[C@@H](O)c1ccccc1 [1S,2R-PHENYLPROPANOLAMINE], the “20mM inhibition LmjIPCS” value was 19%. For CC1(C)O[C@@H]2C[C@H]3[C@@H]4CCC5=CC(=O)C=C[C@]5(C)[C@@]4(F)[C@@H](O)C[C@]3(C)[C@]2(C(=O)CO)O1 [TRIAMCINOLONE ACETONIDE], the “20mM inhibition LmjIPCS” value was 37%. COc1cc2c(cc1O)CCNC2C (stereo not drawn) [SALSOLINE] was tested, and the “20mM inhibition LmjIPCS” value was 12%. For CC1(C)S[C@@H]2[C@H](NC(=O)C(C(=O)O)c3ccccc3)C(=O)N2[C@H]1C(=O)O (stereo partly drawn) [CARBENICILLIN], the “20mM inhibition LmjIPCS” value was 52%. CCCc1nn(C)c2c(=O)[nH]c(-c3cc(S(=O)(=O)N4CCN(C)CC4)ccc3OCC)nc12 was tested, and the “20mM inhibition LmjIPCS” value was 50%. In the case of NC(=O)N1c2ccccc2C=Cc2ccccc21 [CARBAMAZEPINE], the “20mM inhibition LmjIPCS” value was 50%. O=C1CCO1 [BETA-PROPIOLACTONE] was tested, and the “20mM inhibition LmjIPCS” value was 1.45%. In the case of C[C@@H]1C[C@H]2[C@@H]3C[C@H](F)C4=CC(=O)C=C[C@]4(C)[C@@]3(F)[C@@H](O)C[C@]2(C)[C@@]1(O)C(=O)COC(=O)C(C)(C)C [FLUMETHAZONE PIVALATE], the “20mM inhibition LmjIPCS” value was 14%. For CN[C@@H](C)[C@H](O)c1ccccc1 [EPHEDRINE (1R,2S)], the “20mM inhibition LmjIPCS” value was 8%. For CC(N)C(=O)OC(C)(C)Cc1ccc(Cl)cc1 (stereo not drawn) [ALAPROCLATE], the “20mM inhibition LmjIPCS” value was 36%. With N=C(N)N/N=C/c1c(Cl)cccc1Cl [GUANABENZ ACETATE] the “20mM inhibition LmjIPCS” value was 55%. With Cc1onc(-c2ccccc2Cl)c1C(=O)N[C@@H]1C(=O)N2[C@@H]1SC(C)(C)[C@@H]2C(=O)O [CLOXACILLIN] the “20mM inhibition LmjIPCS” value was 45%. Oc1c(Cl)cc(Cl)c(Cl)c1Cc1c(O)c(Cl)cc(Cl)c1Cl [HEXACHLOROPHENE] was tested, and the “20mM inhibition LmjIPCS” value was 41%. In the case of CN(C)CCc1c[nH]c2ccc(C[C@H]3COC(=O)N3)cc12 [ZOLMITRIPTAN], the “20mM inhibition LmjIPCS” value was 44%. With COCCOC(=O)C1=C(C)NC(C)=C(C(=O)OC(C)C)C1c1cccc([N+](=O)[O-])c1 (stereo not drawn) [NIMODIPINE] the “20mM inhibition LmjIPCS” value was 36%.

Same assay, conditions: NINDS set screen, single concentration 20mM as printed
In the case of O=C(O)CN(CCN(CC(=O)O)CC(=O)O)CC(=O)O.[Na+].[Na+].[Na+] [TRISODIUM ETHYLENEDIAMINE TETRACETATE], the “20mM inhibition LmjIPCS” value was -4.23%.

Same assay, conditions: NINDS set screen, single concentration printed as 20mM
For CC1(C)[C@H]2CC[C@@]1(C)C(=O)C2 [1R-CAMPHOR], the “20mM inhibition LmjIPCS” value was 46%. With CC(CCc1ccccc1)NC(C)C(O)c1ccc(O)cc1 (stereo not drawn) [NYLIDRIN HYDROCHLORIDE] the “20mM inhibition LmjIPCS” value was 54%. COc1ccc(C(Cl)=C(c2ccc(OC)cc2)c2ccc(OC)cc2)cc1 [CHLOROTRIANISENE] was tested, and the “20mM inhibition LmjIPCS” value was 65%. NC(Cc1c[nH]cn1)C(=O)Nc1ccc2ccccc2c1 (stereo not drawn) was tested, and the “20mM inhibition LmjIPCS” value was 47%. With C#CCCCCCCCCCCCC(O)CC(O)CO (stereo not drawn) [AVOCADYNE] the “20mM inhibition LmjIPCS” value was 65%. With CCOC(=O)c1ccc(N)cc1 [BENZOCAINE] the “20mM inhibition LmjIPCS” value was 46%. In the case of CC(=O)[C@H]1CC[C@H]2[C@@H]3CC=C4C[C@@H](O)CC[C@]4(C)[C@H]3CC[C@]12C [PREGNENOLONE], the “20mM inhibition LmjIPCS” value was 52%. COc1ccc(C(=O)c2ccccc2)c(O)c1 [OXYBENZONE] was tested, and the “20mM inhibition LmjIPCS” value was 34%.

Same assay, conditions: NINDS set screen; read-out: inhibition LmjIPCS
Work on O=C(CCCN1CCC2(CC1)C(=O)NCN2c1ccccc1)c1ccc(F)cc1 [SPIPERONE] yielded an inhibition of -6%. CCCCCCCCCCCCCCCC(=O)OC/C=C(C)/C=C/C=C(C)/C=C/C1=C(C)CCCC1(C)C [RETINYL PALMITATE] was tested, and the inhibition was 18%. O=C(O)c1nc2cc(Cl)c(Cl)cc2nc1O gave an inhibition of -14%. COC(=O)C(C)c1ccc(C(=O)c2cccs2)cc1 (stereo not drawn) [SUPROFEN METHYL ESTER] was tested, and the inhibition was -10%. With CC(=O)N1CCCC1C(=O)O (stereo not drawn) [N-ACETYLPROLINE] the inhibition was -1.28%. For CC(C)NNC(=O)c1ccncc1 [IPRONIAZID], the inhibition was 31%. Compound CC[C@@H]1C(=O)OC[C@@H]1Cc1cncn1C [PILOCARPINE] has an inhibition of -4.6%. With Cc1cc(-c2ccccc2)nnc1NCCN1CCOCC1 [MINAPRINE] the inhibition was 25%. For C[C@]12C=CC(=O)C=C1CC[C@H]1[C@@H]3C[C@@H](O)[C@](O)(C(=O)CO)[C@@]3(C)C[C@H](O)[C@@]12F [TRIAMCINOLONE], the inhibition was -1.57%. In the case of Nc1ccc(S(=O)(=O)Nc2ccnn2-c2ccccc2)cc1 [SULFAPHENAZOLE], the inhibition was 0.104%. CC(=O)OCC(COC(C)=O)OC(C)=O [TRIACETIN] showed an inhibition of 29%.

Same assay, conditions: read-out: 20mM inhibition LmjIPCS
CN1C(=O)CCS(=O)(=O)C1c1ccc(Cl)cc1 (stereo not drawn) [CHLORMEZANONE] was tested, and the inhibition at 20000 µM was -1.07%. NNc1nncc2ccccc12 [HYDRALAZINE] was tested, and the inhibition at 20000 µM was 15%. Work on COc1cc([C@@H]2c3cc4c(cc3[C@H](O)[C@H]3COC(=O)[C@H]23)OCO4)cc(OC)c1OC [PODOFILOX] yielded an inhibition at 20000 µM of 21%. With CC[C@@H](C(=O)O)[C@@H]1O[C@@H]([C@@H](C)[C@H](O)[C@H](C)C(=O)[C@H](CC)[C@H]2O[C@]3(C=C[C@@H](O)[C@]4(CC[C@@](C)([C@H]5CC[C@](O)(CC)[C@H](C)O5)O4)O3)[C@H](C)C[C@@H]2C)[C@@H](C)C[C@@H]1C [NARASIN] the inhibition at 20000 µM was -0.161%. Compound Cc1onc(-c2c(Cl)cccc2Cl)c1C(=O)N[C@@H]1C(=O)N2[C@@H]1SC(C)(C)[C@@H]2C(=O)O [DICLOXACILLIN] has an inhibition at 20000 µM of 2.55%. Compound CC1=C(C(=O)O)N2C(=O)[C@@H](NC(=O)[C@H](N)c3ccccc3)[C@H]2SC1 [CEPHALEXIN] has an inhibition at 20000 µM of 5.26%. Work on C1CNCCN1 [PIPERAZINE] yielded an inhibition at 20000 µM of 5.42%. For CC(=O)O[C@]1(C(C)=O)CC[C@H]2[C@@H]3C=C(C)C4=CC(=O)CC[C@]4(C)[C@H]3CC[C@@]21C [MEGESTROL ACETATE], the inhibition at 20000 µM was 15%. Compound CC(=O)OCC(=O)[C@@]12OC3(CCCC3)O[C@@H]1C[C@H]1[C@@H]3CCC4=CC(=O)C=C[C@]4(C)[C@@]3(F)[C@@H](O)C[C@@]12C [AMCINONIDE] has an inhibition at 20000 µM of 11%. For CC(=O)Oc1ccccc1C(=O)O [ASPIRIN], the inhibition at 20000 µM was 23%. c1ccc2c(c1)[nH]c1cnccc12 [NORHARMAN] gave an inhibition at 20000 µM of 17%. For CC(COc1ccccc1)NC(C)C(O)c1ccc(O)cc1 (stereo not drawn) [ISOXSUPRINE], the inhibition at 20000 µM was 32%. CC(C(=O)O)c1ccc(N2Cc3ccccc3C2=O)cc1 (stereo not drawn) [INDOPROFEN] was tested, and the inhibition at 20000 µM was -1.7%. With C/C=C(/C)C(=O)O[C@H]1CC[C@@]2(C)[C@@H]3CC[C@H]4[C@]5(O)C[C@H](O)[C@@]6(O)[C@@H](CN7C[C@@H](C)CC[C@H]7[C@@]6(C)O)[C@]5(O)C[C@@]42O[C@]13O [CEVADINE] the inhibition at 20000 µM was 10%. NC(=O)NC1NC(=O)NC1=O (stereo not drawn) [ALLANTOIN] gave an inhibition at 20000 µM of 18%. CCCC(=O)O[C@]1(C(=O)CO)CC[C@H]2[C@@H]3CCC4=CC(=O)CC[C@]4(C)[C@H]3[C@@H](O)C[C@@]21C [HYDROCORTISONE BUTYRATE] showed an inhibition at 20000 µM of 5.61%. O=C(O)c1cccnc1 [NIACIN] showed an inhibition at 20000 µM of 15%. CCN(CC)C(=O)c1cccc(C)c1 [DIETHYLTOLUAMIDE] was tested, and the inhibition at 20000 µM was 17%. For NS(=O)(=O)c1cc(C(=O)O)c(NCc2ccco2)cc1Cl [FUROSEMIDE], the inhibition at 20000 µM was 5%. Cc1[nH]ccc2c1[nH]c1cc(=O)ccc12 [HARMOL] was tested, and the inhibition at 20000 µM was 15%. CC(N/C(=N\C#N)Nc1ccncc1)C(C)(C)C (stereo not drawn) gave an inhibition at 20000 µM of 12%. Compound CC(C)C[C@H](NC(=O)CN)C(=O)N[C@@H](Cc1ccccc1)C(=O)O (H-Gly-Leu-Phe-OH) has an inhibition at 20000 µM of 11%. For CCOC(=O)N1CCC(=C2c3ccc(Cl)cc3CCc3cccnc32)CC1 [LORATADINE], the inhibition at 20000 µM was 21%. With C=C1[C@@H]2CC[C@H]3[C@]4(C)C[C@H](O[C@@H]5O[C@H](CO)[C@@H](OS(=O)(=O)O)[C@H](OS(=O)(=O)O)[C@H]5OC(=O)CC(C)C)C[C@@H](C(=O)O)[C@H]4CC[C@]3(C2)[C@H]1O [ATRACTYLOSIDE] the inhibition at 20000 µM was 18%. Work on COc1ccc(-c2oc3c(CC=C(C)C)c(O[C@@H]4O[C@H](CO)[C@@H](O)[C@H](O)[C@H]4O)cc(O)c3c(=O)c2O[C@@H]2O[C@@H](C)[C@H](O)[C@@H](O)[C@H]2O)cc1 [ICARIIN] yielded an inhibition at 20000 µM of 10%. Work on CC(C)NCC(O)COc1ccc(CC(N)=O)cc1 (stereo not drawn) [ATENOLOL] yielded an inhibition at 20000 µM of -6%.

Same assay, conditions: read-out: inhibition LmjIPCS
With CC1(C)[C@@H](OC(=O)CCC(=O)O)CC[C@]2(C)[C@H]3C(=O)C=C4[C@@H]5C[C@@](C)(C(=O)O)CC[C@]5(C)CC[C@@]4(C)[C@]3(C)CC[C@@H]12 [CARBENOXOLONE] the inhibition was 1.66%. With CN(C)CCOC(C)(c1ccccc1)c1ccccn1 (stereo not drawn) [DOXYLAMINE] the inhibition was 9%. Cc1ncc([N+](=O)[O-])n1CCO [METRONIDAZOLE] showed an inhibition of 7%. Work on COc1ccc([C@@H]2Sc3ccccc3N(CCN(C)C)C(=O)[C@@H]2OC(C)=O)cc1 [DILTIAZEM] yielded an inhibition of 14%. In the case of N[C@@H]1CON=C1O [CYCLOSERINE], the inhibition was -1.4%. NC(=O)CN1CCCC1=O gave an inhibition of 6%. O=c1[nH]cc(F)c(=O)[nH]1 [FLUOROURACIL] gave an inhibition of 4.66%. CO[C@H]1C[C@H](O[C@H]2[C@H](C)[C@@H](O[C@@H]3O[C@H](C)C[C@H](N(C)C)[C@H]3OC(C)=O)[C@@H](C)C[C@@]3(CO3)C(=O)[C@H](C)[C@@H](OC(C)=O)[C@@H](C)[C@@H](C)OC(=O)[C@@H]2C)O[C@@H](C)[C@@H]1OC(C)=O [TROLEANDOMYCIN] was tested, and the inhibition was 18%. With CNC(C)C1CCC(N)C(OC2C(N)CC(N)C(OC3OCC(C)(O)C(NC)C3O)C2O)O1 (stereo not drawn) [GENTAMICIN] the inhibition was -1%. CCOC(=O)n1ccn(C)c1=S [CARBIMAZOLE] showed an inhibition of 12%.

Same assay, conditions: screening of NINDS set, sheet Screen 1; read-out: inhibition LmjIPCS
Work on NNC(=O)c1ccncc1 [ISONIAZID] yielded an inhibition of 9%. For CCOC(=O)NNc1nncc2ccccc12 [TODRALAZINE], the inhibition was 2%. Compound CC(=O)Oc1cccc(O)c1 [RESORCINOL MONOACETATE] has an inhibition of 4%.
